According to the supplement of paper PMC10307832:

Legend:
Assay in all cases: relative viability (nuclei count vs DMSO), 5 days (fraction); higher = more cells survive
Pictilisib + Foretinib = compound: CS(=O)(=O)N1CCN(Cc2cc3nc(-c4cccc5[nH]ncc45)nc(N4CCOCC4)c3s2)CC1 [Pictilisib] + COc1cc2c(Oc3ccc(NC(=O)C4(C(=O)Nc5ccc(F)cc5)CC4)cc3F)ccnc2cc1OCCCN1CCOCC1 [Foretinib] (partner 0.25 µM)
In short: (§1)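 Lung cancer cell lines in 1536-well plates got either a single drug or a fixed anchor-drug dose together with five library-drug doses (not always all listed) in √10 steps, by pin tool, on the day after seeding. Nuclei were counted after 5 days, and relative viability is the treated-to-vehicle ratio of nuclei counts. Values are medians of duplicate plates.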

MK-2206 + Navitoclax = compound: NC1(c2ccc(-c3nc4ccn5c(=O)[nH]nc5c4cc3-c3ccccc3)cc2)CCC1 [MK-2206] + CC1(C)CCC(c2ccc(Cl)cc2)=C(CN2CCN(c3ccc(C(=O)NS(=O)(=O)c4ccc(N[C@H](CCN5CCOCC5)CSc5ccccc5)c(S(=O)(=O)C(F)(F)F)c4)cc3)CC2)C1 [Navitoclax] (partner 0.5 µM)
In short: as §1

Pictilisib + Navitoclax = compound: CS(=O)(=O)N1CCN(Cc2cc3nc(-c4cccc5[nH]ncc45)nc(N4CCOCC4)c3s2)CC1 [Pictilisib] + CC1(C)CCC(c2ccc(Cl)cc2)=C(CN2CCN(c3ccc(C(=O)NS(=O)(=O)c4ccc(N[C@H](CCN5CCOCC5)CSc5ccccc5)c(S(=O)(=O)C(F)(F)F)c4)cc3)CC2)C1 [Navitoclax] (partner 0.5 µM)
In short: as §1

MK-2206 + Trametinib = compound: NC1(c2ccc(-c3nc4ccn5c(=O)[nH]nc5c4cc3-c3ccccc3)cc2)CCC1 [MK-2206] + CC(=O)Nc1cccc(-n2c(=O)n(C3CC3)c(=O)c3c(Nc4ccc(I)cc4F)n(C)c(=O)c(C)c32)c1 [Trametinib] (partner 0.02 µM)
In short: as §1

Pictilisib + Decitabine = compound: CS(=O)(=O)N1CCN(Cc2cc3nc(-c4cccc5[nH]ncc45)nc(N4CCOCC4)c3s2)CC1 [Pictilisib] + Nc1ncn([C@H]2C[C@H](O)[C@@H](CO)O2)c(=O)n1 [Decitabine] (partner 2 µM)
In short: as §1

Cell Line | relative viability (Pictilisib + Foretinib; first compound 0.02 µM) | relative viability (Pictilisib + Foretinib; first compound 0.06325 µM) | relative viability (Pictilisib + Foretinib; first compound 0.6325 µM) | relative viability (Pictilisib + Foretinib; first compound 2 µM) | relative viability (MK-2206 + Navitoclax; first compound 0.01 µM) | relative viability (MK-2206 + Navitoclax; first compound 0.03162 µM) | relative viability (MK-2206 + Navitoclax; first compound 0.3162 µM) | relative viability (MK-2206 + Navitoclax; first compound 1 µM) | relative viability (Pictilisib + Navitoclax; first compound 0.02 µM) | relative viability (Pictilisib + Navitoclax; first compound 0.06325 µM) | relative viability (Pictilisib + Navitoclax; first compound 0.6325 µM) | relative viability (Pictilisib + Navitoclax; first compound 2 µM) | relative viability (MK-2206 + Trametinib; first compound 0.01 µM) | relative viability (MK-2206 + Trametinib; first compound 0.03162 µM) | relative viability (MK-2206 + Trametinib; first compound 0.3162 µM) | relative viability (MK-2206 + Trametinib; first compound 1 µM) | relative viability (Pictilisib + Decitabine; first compound 0.02 µM) | relative viability (Pictilisib + Decitabine; first compound 0.06325 µM) | relative viability (Pictilisib + Decitabine; first compound 0.6325 µM) | relative viability (Pictilisib + Decitabine; first compound 2 µM)
NCI-H596 | 0.603 | 0.735 | 0.454 | 0.283 | 0.948 | 1.06 | 0.756 | 0.669 | 0.736 | 0.835 | 0.645 | 0.206 | 0.728 | 0.756 | 0.713 | 0.603 | 0.963 | 1.02 | 0.756 | 0.403
NCI-H460 | 1.01 | 0.978 | 0.883 | 0.243 | 1.16 | 1.16 | 1.21 | 1.07 | 1.15 | 1.07 | 0.563 | 0.201 | 0.154 | 0.193 | 0.0937 | 0.0745 | 0.528 | 0.558 | 0.301 | 0.109
NCI-H647 | 1.05 | 0.997 | 1.15 | 0.758 | 1.02 | 1.21 | 0.969 | 1.02 | 1.27 | 1.03 | 0.928 | 0.351 | 0.457 | 0.473 | 0.429 | 0.364 | 0.308 | 0.389 | 0.276 | 0.236
NCI-H838 | 0.973 | 0.895 | 0.929 | 0.45 | 1.15 | 1.19 | 1.19 | 1.04 | 1.12 | 1.04 | 1.01 | 0.61 | 0.504 | 0.507 | 0.498 | 0.354 | 0.474 | 0.492 | 0.381 | 0.371
PC-14 | 1.04 | 0.976 | 0.953 | 0.805 | 0.956 | 1.05 | 1.1 | 1.01 | 1.03 | 1.06 | 1.06 | 0.739 | 0.557 | 0.876 | 0.516 | 0.704 | 0.245 | 0.254 | 0.302 | 0.322
NCI-H1915 | 1.07 | 1.12 | 1.1 | 1.02 | 0.813 | 0.83 | 0.835 | 0.784 | 0.811 | 0.789 | 0.797 | 0.789 | 0.3 | 0.315 | 0.282 | 0.293 | 0.259 | 0.251 | 0.259 | 0.283
201T | 1.06 | 1.07 | 0.846 | 0.617 | 1.23 | 1.28 | 1.23 | 1.21 | 1.23 | 1.18 | 1.24 | 0.792 | 0.688 | 0.753 | 0.743 | 0.724 | 0.869 | 0.83 | 0.675 | 0.843
NCI-H1437 | 1.23 | 1.29 | 1.36 | 0.96 | 1.07 | 1.16 | 1.18 | 1.09 | 1.16 | 1.14 | 1.04 | 0.677 | 0.577 | 0.51 | 0.44 | 0.403 | 0.499 | 0.534 | 0.536 | 0.438
A-427 | 1.15 | 0.929 | 1 | 0.604 | 0.937 | 0.877 | 0.849 | 0.902 | 0.952 | 0.785 | 1.04 | 0.809 | 0.819 | 0.748 | 0.666 | 0.62 | 0.579 | 0.492 | 0.486 | 0.453
HCC-366 | 0.978 | 0.936 | 0.68 | 0.329 | 1.04 | 1.11 | 0.736 | 1.04 | 1.04 | 1.06 | 0.908 | 0.195 | 0.302 | 0.384 | 0.204 | 0.223 | 0.335 | 0.304 | 0.194 | 0.114
BEN | 0.83 | 0.599 | 0.587 | 0.538 | 0.069 | 0.0836 | 0.0745 | 0.0466 | 0.0665 | 0.0632 | 0.0606 | 0.0433 | 1.17 | 1.2 | 1.23 | 1.05 | 0.659 | 0.776 | 0.806 | 0.554
NCI-H2347 | 0.843 | 0.937 | 1.19 | 0.438 | 0.752 | 0.883 | 0.684 | 0.883 | 0.865 | 0.874 | 0.75 | 0.528 | 0.325 | 0.262 | 0.284 | 0.263 | 0.663 | 0.658 | 0.579 | 0.502
NCI-H1975 | 0.834 | 0.902 | 0.603 | 0.25 | 1.05 | 0.969 | 0.938 | 0.787 | 1.02 | 0.936 | 0.707 | 0.314 | 0.305 | 0.352 | 0.261 | 0.371 | 0.385 | 0.377 | 0.329 | 0.257
NCI-H2126 | 1.23 | 1.14 | 0.931 | 0.423 | 0.821 | 0.814 | 0.782 | 0.793 | 0.855 | 0.836 | 0.747 | 0.636 | 0.559 | 0.543 | 0.515 | 0.455 | 0.559 | 0.57 | 0.473 | 0.494
NCI-H2087 | 1 | 1.19 | 0.828 | 0.588 | 1.14 | 0.905 | 0.906 | 0.912 | 1.04 | 0.945 | 0.943 | 0.674 | 0.246 | 0.211 | 0.176 | 0.133 | 0.212 | 0.344 | 0.189 | 0.151
